± gives the expanded uncertainty stated by the source.
Test: mn = molality of the nth substance listed, in mol/kg
Details: 101.3 kPa, Liquid, buoyancy

CCOS(=O)(=O)[O-].CCn1cc[n+](C)c1 [1-ethyl-3-methylimidazolium ethyl sulfate] + O
Details | mass density [kg/m3]
278.15 K, m1 = 0.2224 | 1010 ± 5.7
278.15 K, m1 = 0.4472 | 1019.6 ± 5.8
278.15 K, m1 = 0.6739 | 1028.5 ± 5.8
278.15 K, m1 = 0.903 | 1037.1 ± 5.9
278.15 K, m1 = 1.132 | 1045.3 ± 5.9
278.15 K, m1 = 1.364 | 1053.1 ± 6
278.15 K, m1 = 1.598 | 1060.5 ± 6
278.15 K, m1 = 1.835 | 1067.6 ± 6
278.15 K, m1 = 2.072 | 1074.2 ± 6.1
278.15 K, m1 = 2.313 | 1080.5 ± 6.1
278.15 K, m1 = 2.554 | 1086.4 ± 6.1
278.15 K, m1 = 2.798 | 1092.2 ± 6.2
278.15 K, m1 = 3.044 | 1098.2 ± 6.2
283.15 K, m1 = 0.2224 | 1009.6 ± 5.7
283.15 K, m1 = 0.4472 | 1018.9 ± 5.8
283.15 K, m1 = 0.6739 | 1027.7 ± 5.8
283.15 K, m1 = 0.903 | 1036.1 ± 5.9
283.15 K, m1 = 1.132 | 1044 ± 5.9
283.15 K, m1 = 1.364 | 1051.5 ± 5.9
283.15 K, m1 = 1.598 | 1058.8 ± 6
283.15 K, m1 = 1.835 | 1065.6 ± 6
283.15 K, m1 = 2.072 | 1072 ± 6.1
283.15 K, m1 = 2.313 | 1078.2 ± 6.1
283.15 K, m1 = 2.554 | 1084 ± 6.1
283.15 K, m1 = 2.798 | 1089.6 ± 6.2
283.15 K, m1 = 3.044 | 1095 ± 6.2
288.15 K, m1 = 0.2224 | 1008.7 ± 5.7
288.15 K, m1 = 0.4472 | 1017.8 ± 5.8
288.15 K, m1 = 0.6739 | 1026.5 ± 5.8
288.15 K, m1 = 0.903 | 1034.8 ± 5.8
288.15 K, m1 = 1.132 | 1042.6 ± 5.9
288.15 K, m1 = 1.364 | 1050.1 ± 5.9
288.15 K, m1 = 1.598 | 1057.2 ± 6
288.15 K, m1 = 1.835 | 1063.8 ± 6
288.15 K, m1 = 2.072 | 1070.2 ± 6
288.15 K, m1 = 2.313 | 1076.2 ± 6.1
288.15 K, m1 = 2.554 | 1082 ± 6.1
288.15 K, m1 = 2.798 | 1087.4 ± 6.1
288.15 K, m1 = 3.044 | 1092.5 ± 6.2
293.15 K, m1 = 0.2224 | 1007.6 ± 5.7
293.15 K, m1 = 0.4472 | 1016.7 ± 5.7
293.15 K, m1 = 0.6739 | 1025.2 ± 5.8
293.15 K, m1 = 0.903 | 1033.3 ± 5.8
293.15 K, m1 = 1.132 | 1041 ± 5.9
293.15 K, m1 = 1.364 | 1048.3 ± 5.9
293.15 K, m1 = 1.598 | 1055.2 ± 6
293.15 K, m1 = 1.835 | 1061.9 ± 6
293.15 K, m1 = 2.072 | 1068.1 ± 6
293.15 K, m1 = 2.313 | 1074.1 ± 6.1
293.15 K, m1 = 2.554 | 1079.6 ± 6.1
293.15 K, m1 = 2.798 | 1085 ± 6.1
293.15 K, m1 = 3.044 | 1090 ± 6.2
298.15 K, m1 = 0.2224 | 1006.3 ± 5.7
298.15 K, m1 = 0.4472 | 1015 ± 5.7
298.15 K, m1 = 0.6739 | 1023.3 ± 5.8
298.15 K, m1 = 0.903 | 1031.2 ± 5.8
298.15 K, m1 = 1.132 | 1038.7 ± 5.9
298.15 K, m1 = 1.364 | 1045.7 ± 5.9
298.15 K, m1 = 1.598 | 1052.5 ± 5.9
298.15 K, m1 = 1.835 | 1058.9 ± 6
298.15 K, m1 = 2.072 | 1064.9 ± 6
298.15 K, m1 = 2.313 | 1070.6 ± 6.1
298.15 K, m1 = 2.554 | 1076.1 ± 6.1
298.15 K, m1 = 2.798 | 1081.3 ± 6.1
298.15 K, m1 = 3.044 | 1086.2 ± 6.1
303.15 K, m1 = 0.2224 | 1004.7 ± 5.7
303.15 K, m1 = 0.4472 | 1013.3 ± 5.7
303.15 K, m1 = 0.6739 | 1021.6 ± 5.8
303.15 K, m1 = 0.903 | 1029.3 ± 5.8
303.15 K, m1 = 1.132 | 1036.8 ± 5.9
303.15 K, m1 = 1.364 | 1043.9 ± 5.9
303.15 K, m1 = 1.598 | 1050.6 ± 5.9
303.15 K, m1 = 1.835 | 1057 ± 6
303.15 K, m1 = 2.072 | 1062.9 ± 6
303.15 K, m1 = 2.313 | 1068.6 ± 6
303.15 K, m1 = 2.554 | 1074.1 ± 6.1
303.15 K, m1 = 2.798 | 1079.4 ± 6.1
303.15 K, m1 = 3.044 | 1084.3 ± 6.1
308.15 K, m1 = 0.2224 | 1002.9 ± 5.7
308.15 K, m1 = 0.4472 | 1011.6 ± 5.7
308.15 K, m1 = 0.6739 | 1019.6 ± 5.8
308.15 K, m1 = 0.903 | 1027.7 ± 5.8
308.15 K, m1 = 1.132 | 1034.6 ± 5.8
308.15 K, m1 = 1.364 | 1041.5 ± 5.9
308.15 K, m1 = 1.598 | 1048.3 ± 5.9
308.15 K, m1 = 1.835 | 1054.6 ± 6
308.15 K, m1 = 2.072 | 1060.5 ± 6
308.15 K, m1 = 2.313 | 1066.2 ± 6
308.15 K, m1 = 2.554 | 1071.7 ± 6.1
308.15 K, m1 = 2.798 | 1076.8 ± 6.1
308.15 K, m1 = 3.044 | 1081.8 ± 6.1
313.15 K, m1 = 0.2224 | 1001.1 ± 5.7
313.15 K, m1 = 0.4472 | 1009.6 ± 5.7
313.15 K, m1 = 0.6739 | 1017.9 ± 5.8
313.15 K, m1 = 0.903 | 1025.6 ± 5.8
313.15 K, m1 = 1.132 | 1032.8 ± 5.8
313.15 K, m1 = 1.364 | 1039.7 ± 5.9
313.15 K, m1 = 1.598 | 1046.4 ± 5.9
313.15 K, m1 = 1.835 | 1052.8 ± 5.9
313.15 K, m1 = 2.072 | 1058.8 ± 6
313.15 K, m1 = 2.313 | 1064.4 ± 6
313.15 K, m1 = 2.554 | 1069.8 ± 6
313.15 K, m1 = 2.798 | 1074.9 ± 6.1
313.15 K, m1 = 3.044 | 1079.8 ± 6.1
318.15 K, m1 = 0.2224 | 999 ± 5.6
318.15 K, m1 = 0.4472 | 1007.5 ± 5.7
318.15 K, m1 = 0.6739 | 1015.6 ± 5.7
318.15 K, m1 = 0.903 | 1023.1 ± 5.8
318.15 K, m1 = 1.132 | 1030.4 ± 5.8
318.15 K, m1 = 1.364 | 1037.3 ± 5.9
318.15 K, m1 = 1.598 | 1043.9 ± 5.9
318.15 K, m1 = 1.835 | 1050.2 ± 5.9
318.15 K, m1 = 2.072 | 1056.1 ± 6
318.15 K, m1 = 2.313 | 1061.7 ± 6
318.15 K, m1 = 2.554 | 1067.1 ± 6
318.15 K, m1 = 2.798 | 1072.3 ± 6.1
318.15 K, m1 = 3.044 | 1077.1 ± 6.1
323.15 K, m1 = 0.2224 | 996.6 ± 5.6
323.15 K, m1 = 0.4472 | 1005.1 ± 5.7
323.15 K, m1 = 0.6739 | 1013 ± 5.7
323.15 K, m1 = 0.903 | 1020.5 ± 5.8
323.15 K, m1 = 1.132 | 1027.9 ± 5.8
323.15 K, m1 = 1.364 | 1034.7 ± 5.8
323.15 K, m1 = 1.598 | 1041.3 ± 5.9
323.15 K, m1 = 1.835 | 1047.7 ± 5.9
323.15 K, m1 = 2.072 | 1053.6 ± 6
323.15 K, m1 = 2.313 | 1059.4 ± 6
323.15 K, m1 = 2.554 | 1064.8 ± 6
323.15 K, m1 = 2.798 | 1070 ± 6
323.15 K, m1 = 3.044 | 1074.9 ± 6.1
328.15 K, m1 = 0.2224 | 994.1 ± 5.6
328.15 K, m1 = 0.4472 | 1002.6 ± 5.7
328.15 K, m1 = 0.6739 | 1010.6 ± 5.7
328.15 K, m1 = 0.903 | 1018.1 ± 5.8
328.15 K, m1 = 1.132 | 1025.3 ± 5.8
328.15 K, m1 = 1.364 | 1032.1 ± 5.8
328.15 K, m1 = 1.598 | 1038.7 ± 5.9
328.15 K, m1 = 1.835 | 1045.1 ± 5.9
328.15 K, m1 = 2.072 | 1051.1 ± 5.9
328.15 K, m1 = 2.313 | 1056.8 ± 6
328.15 K, m1 = 2.554 | 1062.4 ± 6
328.15 K, m1 = 2.798 | 1067.4 ± 6
328.15 K, m1 = 3.044 | 1072.7 ± 6.1
333.15 K, m1 = 0.2224 | 991.4 ± 5.6
333.15 K, m1 = 0.4472 | 999.8 ± 5.7
333.15 K, m1 = 0.6739 | 1007.7 ± 5.7
333.15 K, m1 = 0.903 | 1015.4 ± 5.7
333.15 K, m1 = 1.132 | 1022.7 ± 5.8
333.15 K, m1 = 1.364 | 1029.7 ± 5.8
333.15 K, m1 = 1.598 | 1036.4 ± 5.9
333.15 K, m1 = 1.835 | 1042.7 ± 5.9
333.15 K, m1 = 2.072 | 1048.9 ± 5.9
333.15 K, m1 = 2.313 | 1054.9 ± 6
333.15 K, m1 = 2.554 | 1060.4 ± 6
333.15 K, m1 = 2.798 | 1065.8 ± 6
333.15 K, m1 = 3.044 | 1070.9 ± 6.1
